Where two headings read alike, the source gives them in different places. Where a SMILES comes first, the peptide text is derived from it. [ ]: non-standard residue; d: D form. The star is where a group is joined. ξ: configuration not given here. ξF = NC(Cc1ccccc1)C(=O)O; Cbz = O=C(OCc1ccccc1)*; ξV = CC(C)C(N)C(=O)O; CHN2 = [N-]=[N+]=C*; ξP = O=C(O)C1CCCN1; tBu = CC(C)(C)*
Legend:
cancer procoagulant (CP) [1] = test: one-stage plasma recalcification clotting time assay, inhibition of CP procoagulant activity; type: biochemical, rabbit; details: for percent inhibition of CP: 30 min at 25° C.
papain = molecular target: T1, papain (Carica papaya, UniProt P00784); type: biochemical; details: 30 min at 25° C.
T1 construct: purchased Sigma Chemical Co. (St. Louis, MO)
T1 sequence (P00784 134-345): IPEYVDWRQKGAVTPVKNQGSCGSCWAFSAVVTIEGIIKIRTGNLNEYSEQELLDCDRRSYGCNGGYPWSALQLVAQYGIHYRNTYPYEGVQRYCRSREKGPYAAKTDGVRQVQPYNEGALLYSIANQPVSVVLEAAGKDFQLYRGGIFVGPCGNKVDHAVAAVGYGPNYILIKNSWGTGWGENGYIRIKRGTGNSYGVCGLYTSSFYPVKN
Experimental: (§1) If the volume of the sample was too small, 0.05 ml of the sample was used with proportional reduction in the volume of the other reagents. […] These dilutions of RVV were used to calibrate the assay plasma and to verify linearity of the clotting times over the range of procoagulant activity.
(§2) The procoagulant activity of the samples was expressed as clotting time in seconds or as the percent activity, calculated as the percent reduction of clotting time (CT) from the corresponding buffer blank [(blank time (sec)-sample clotting time (sec))/ blank time (sec)]×100. The percent inhibition of the control and experimental procoagulants by the peptidyl diazomethyl ketone and peptidyl sulfonium salt inhibitors was expressed as the percent increase in the clotting time compared with the uninhibited sample [(inhibited CT-uninhibited CT)/uninhibited CT]×100.
(§3) Papain, a factor X activator and cysteine proteinase standard, RVV (Russell's viper venom) and rabbit brain thromboplastin, a tissue factor (TF) standard, were purchased from Sigma Chemical Co. (St. Louis, MO). To determine the effect of the peptidyl diazomethyl ketone and peptidyl sulfonium salt inhibitors on CP, the control procoagulants (Papain, RVV and TF), and the assay plasma system, the procoagulant activity of the samples and controls was analyzed with and without the addition of different concentrations of the inhibitors. […] Peptidyl diazomethyl ketone inhibitors were incubated with the procoagulant samples at a final concentration of 400 μM, 200 μM, 100 μM, 10 μM and 1 μM. Peptidyl sulfonium salt inhibitors were incubated with the samples at a final concentration of 800 μM, as well as the same concentrations as the diazomethyl ketones. At the end of the inhibition incubation, each sample was analyzed in the coagulation assay.

[2] = test system: control procoagulants (TF, RVV and Papain); test: effect on the coagulation controls and the assay plasma; type: biochemical; details: compared with D1-D3 results of FIG. 1
Experimental: The procoagulant activity of the samples and the controls was measured in a one-stage plasma recalcification clotting time assay using a model 202A clot timer (Heller Laboratories, Santa Rose, CA). […]. If the volume of the sample was too small, 0.05 ml of the sample was used with proportional reduction in the volume of the other reagents. […]. These dilutions of RVV were used to calibrate the assay plasma and to verify linearity of the clotting times over the range of procoagulant activity.
as §2
Papain, a factor X activator and cysteine proteinase standard, RVV (Russell's viper venom) and rabbit brain thromboplastin, a tissue factor (TF) standard, were purchased from Sigma Chemical Co. (St. Louis, MO). To determine the effect of the peptidyl diazomethyl ketone and peptidyl sulfonium salt inhibitors on CP, the control procoagulants (Papain, RVV and TF), and the assay plasma system, the procoagulant activity of the samples and controls was analyzed with and without the addition of different concentrations of the inhibitors. […]; there was no effect of these solvents on the assay plasma activity. Preliminary experiments evaluated the time (15, 30 and 50 min) and temperature (25° C. and 37° C.) of the inhibition reaction; 30 min at 25° C. was selected as the optimum conditions and was used for the subsequent studies. […] At the end of the inhibition incubation, each sample was analyzed in the coagulation assay. […]

[3] = test system: small cell carcinoma of the lung; details: patients with small cell carcinoma of the lung; cited from earlier work
[4] = molecular target: T2, rabbit brain thromboplastin, a tissue factor (TF) standard (Oryctolagus cuniculus, UniProt P24055); test: one-stage plasma recalcification clotting time assay, TF control procoagulant; type: biochemical; details: 30 min at 25° C.; for enhancement of TF activity (negative inhibition): 400 μM peptidyl sulfonium salt; for inhibition of TF: 200 μM peptidyl diazomethyl ketone
T2 construct: rabbit brain thromboplastin, a tissue factor (TF) standard; purchased Sigma Chemical Co. (St. Louis, MO); host or cells: rabbit brain
T2 sequence (P24055 33-292): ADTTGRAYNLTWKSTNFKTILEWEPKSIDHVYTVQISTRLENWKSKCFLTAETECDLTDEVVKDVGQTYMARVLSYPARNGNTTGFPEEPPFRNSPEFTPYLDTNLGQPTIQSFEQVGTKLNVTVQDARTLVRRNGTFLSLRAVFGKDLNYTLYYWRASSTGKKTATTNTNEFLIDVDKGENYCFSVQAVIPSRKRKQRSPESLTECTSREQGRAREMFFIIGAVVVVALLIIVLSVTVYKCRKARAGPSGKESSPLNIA
Experimental: The procoagulant activity of the samples and the controls was measured in a one-stage plasma recalcification clotting time assay using a model 202A clot timer (Heller Laboratories, Santa Rose, CA). […] If the volume of the sample was too small, 0.05 ml of the sample was used with proportional reduction in the volume of the other reagents. […] These dilutions of RVV were used to calibrate the assay plasma and to verify linearity of the clotting times over the range of procoagulant activity.
as §2, §3
Each CP or control sample was adjusted to a concentration such that the procoagulant activity reduced the clotting time of the blank assay plasma from 10% to 30%, within the linear range of the assay (Gordon et al. (1979) J. Natl. Cancer Inst. 62:773-776).

[5] = test system: RVV (Russell's viper venom); test: one-stage plasma recalcification clotting time assay, RVV control procoagulant; type: biochemical; details: 30 min at 25° C.; for effect on activity of RVV: 400 μM peptidyl sulfonium salt; for percent inhibition of RVV (negative = slight activation): 200 μM peptidyl diazomethyl ketone
Experimental: as §1, §2, §3

cancer procoagulant (CP) [6] = type: biochemical, human
Experimental: Fresh human placenta was obtained from the delivery deck, the amnion-chorion membranes were removed from the placental tissue and extracted in 3 to 4 changes of 20 mM veronal buffer (pH 7.4) as described in Gordon et al. (1985) Blood 66:1261-1265. The extracts were purified over an anti-Cp antibody affinity column. The purified CP sample was assayed for procoagulant activity by measuring clotting time of normal and factor VII deficient citrated plasma. […] To assure that there was no tissue factor-factor VIIa activity in the preparation, 5 μl (1.3 mg/ml) of rabbit polyclonal anti-tissue factor antibody was added to the sample and incubated for 30 min. at 25° C.

cathepsin L [7] = molecular target: cathepsin L (Homo sapiens, UniProt P07711); details: cited from earlier work
Chain of cathepsin L (Homo sapiens, UniProt P07711) (P07711 114-333, species assumed): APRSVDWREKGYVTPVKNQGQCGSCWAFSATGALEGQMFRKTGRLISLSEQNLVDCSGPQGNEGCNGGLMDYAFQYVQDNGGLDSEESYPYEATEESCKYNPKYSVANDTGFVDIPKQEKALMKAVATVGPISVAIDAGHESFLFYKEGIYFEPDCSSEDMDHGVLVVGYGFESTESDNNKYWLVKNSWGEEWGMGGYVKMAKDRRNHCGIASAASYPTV

[8] = test system: nonsmall cell lung cancer; details: patients with nonsmall cell lung cancer limited to one hemithorax; cited from earlier work
clostripain = clostripain (Hathewaya histolytica, UniProt P09870); details: cited from earlier work
Chain of clostripain (P09870 191-526): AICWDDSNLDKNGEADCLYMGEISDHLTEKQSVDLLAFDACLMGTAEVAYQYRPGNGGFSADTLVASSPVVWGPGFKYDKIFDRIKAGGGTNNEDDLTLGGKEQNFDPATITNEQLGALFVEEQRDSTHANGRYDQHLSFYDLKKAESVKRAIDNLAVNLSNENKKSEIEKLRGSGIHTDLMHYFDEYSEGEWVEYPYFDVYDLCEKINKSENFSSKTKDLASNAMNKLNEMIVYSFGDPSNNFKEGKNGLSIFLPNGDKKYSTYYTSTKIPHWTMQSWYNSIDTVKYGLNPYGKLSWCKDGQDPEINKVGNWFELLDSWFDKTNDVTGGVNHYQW
Chain of clostripain (P09870 51-181): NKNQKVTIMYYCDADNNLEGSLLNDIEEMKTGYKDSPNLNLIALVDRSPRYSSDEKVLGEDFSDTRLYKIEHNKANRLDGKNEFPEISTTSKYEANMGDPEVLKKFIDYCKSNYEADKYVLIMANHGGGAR

isolated rat hepatocytes = details: 10^-5 M; cited from earlier work
cathepsin L [9] = details: cathepsin B from rat and human; substrate Z-Phe-Arg-4-methyl-7-coumarylamide; cited from earlier work
cathepsin B = cathepsin B (Homo sapiens, UniProt P07858); details: cited from earlier work

CC(NC(=O)C(C)NC(=O)OCc1ccccc1)C(=O)C=[N+]=[N-] (stereo not shown) [D6, Z-Ala-Ala diazomethyl ketone]
percent inhibition of CP (cancer procoagulant (CP) [1]; 100 μM inhibitor): 92%
percent inhibition of papain (papain; 100 μM inhibitor): 31%
effect on the coagulation controls and the assay plasma [2]: essentially the same results

CC(=O)CC(c1ccccc1)c1c(O)c2ccccc2oc1=O (stereo not shown) [Warfarin]
survival [3]: significant improvement
time to first evidence disease progression [3]: significant prolongation

Z-Phe-Lys-CH2 -S^+ (CH3)2 bromide [S2]
percent inhibition of CP (cancer procoagulant (CP) [1]; 10 μM inhibitor): no inhibition
percent inhibition of CP (cancer procoagulant (CP) [1]; 100 μM inhibitor): 33%
percent inhibition of CP (cancer procoagulant (CP) [1]; 200 μM inhibitor): 54%
percent inhibition of CP (cancer procoagulant (CP) [1]; 400 μM inhibitor): 72%
percent inhibition of papain (papain; 10 μM inhibitor): 20%
percent inhibition of papain (papain; 100 μM inhibitor): almost the same effect
percent inhibition of papain (papain; 200 μM inhibitor): almost the same effect
enhancement of TF activity (negative inhibition) [4]: 8%
effect on activity of RVV [5]: Neither S1 nor S2 affected the activity of RVV

[N-]=[N+]=CC(=O)CNC(=O)C(Cc1ccccc1)NC(=O)OCc1ccccc1 (stereo not shown) [D2, Z-Phe-Gly diazomethyl ketone] (Cbz-[ξF]-Gly-CHN2)
percent inhibition of CP (cancer procoagulant (CP) [1]; 100 μM inhibitor): 97%
percent inhibition of papain (papain; 100 μM inhibitor): 88%
percent inhibition of papain (papain; 200 μM inhibitor): 97%
inhibition of TF [4]: no significant inhibition
percent inhibition of RVV (negative = slight activation) [5]: -10% to -13%

HgCl2 [Hg^++]
inhibition of procoagulant activity of purified CP (cancer procoagulant (CP) [6]; 1 mM iodoacetamide in water, 0.1 mM HgCl2 in water): all the procoagulant activity was inhibited

CC(C)(C)Oc1ccc(C[C@H](NC(=O)[C@H](Cc2ccccc2)NC(=O)OCc2ccccc2)C(=O)C=[N+]=[N-])cc1 [Z-Phe-Tyr(O-t-Bu) diazomethyl ketone] (Cbz-Phe-Tyr(tBu)-CHN2)
rate of inactivation of cathepsin L relative to cathepsin B (cathepsin L [7]): 2.5×10^4

[N-]=[N+]=CC(=O)CNC(=O)C1CCCN1C(=O)OCc1ccccc1 (stereo not shown) [D3, Z-Pro-Gly diazomethyl ketone] (Cbz-[ξP]-Gly-CHN2)
percent inhibition of papain (papain; 100 μM inhibitor): 15%
percent inhibition of papain (papain; 200 μM inhibitor): 88%
inhibition of TF [4]: no significant inhibition
percent inhibition of RVV (negative = slight activation) [5]: -10% to -13%

OCCN(CCO)c1nc(N2CCCCC2)c2nc(N(CCO)CCO)ncc2n1 [RA-233, mopidamol]
survival [8]: statistically significant prolongation of survival

C[C@H](NC(=O)[C@H](Cc1ccccc1)NC(=O)OCc1ccccc1)C(=O)C=[N+]=[N-] [D1, Z-Phe-Ala diazomethyl ketone]
reactivity toward clostripain (clostripain): absolutely inert
percent inhibition of CP (cancer procoagulant (CP) [1]; 100 μM inhibitor): 68%
inhibition of CP by D1 relative to S1 (times greater) (cancer procoagulant (CP) [1]; same concentration (100 μM), same peptide): ~3 times
percent inhibition of papain (papain; 100 μM inhibitor): 85%
percent inhibition of papain (papain; 200 μM inhibitor): 97%
inhibition of TF [4]: no significant inhibition
inhibition of protein synthesis (isolated rat hepatocytes): 21%
affinity for cathepsin L relative to cathepsin B (cathepsin L [9]): about 2000 fold
percent inhibition of RVV (negative = slight activation) [5]: -10% to -13%

CC(NC(=O)OCc1ccccc1)C(=O)NC(C)C(=O)N1CCCC1C(=O)C=[N+]=[N-] (stereo not drawn) [D5, Z-Ala-Ala-Pro diazomethyl ketone] (Cbz-Ala-Ala-Pro-CHN2; configuration not given here)
percent inhibition of CP (cancer procoagulant (CP) [1]; 100 μM inhibitor): ~62%
percent inhibition of papain (papain; 100 μM inhibitor): 2%
effect on the coagulation controls and the assay plasma [2]: essentially the same results

[N-]=[N+]=CC(=O)C(CCCCN)NC(=O)OCc1ccccc1 (stereo not shown) [Z-Lys diazomethyl ketone]
inhibition of cathepsin B (cathepsin B): powerful inhibitor

NC(=O)CI [iodacetamide, iodoacetamide]
inhibition of procoagulant activity of purified CP (cancer procoagulant (CP) [6]): all the procoagulant activity was inhibited

Z-Phe-Ala-CH2 -S^+ (CH3)2 bromide [S1]
percent inhibition of CP (cancer procoagulant (CP) [1]; 10 μM inhibitor): no inhibition
percent inhibition of CP (cancer procoagulant (CP) [1]; 100 μM inhibitor): 26%
percent inhibition of CP (cancer procoagulant (CP) [1]; 200 μM inhibitor): 51%
percent inhibition of CP (cancer procoagulant (CP) [1]; 400 μM inhibitor): 62%
percent inhibition of papain (papain; 10 μM inhibitor): 55%
percent inhibition of papain (papain; 100 μM inhibitor): completely inhibited
percent inhibition of papain (papain; 200 μM inhibitor): completely inhibited
enhancement of TF activity (negative inhibition) [4]: 5%
effect on activity of RVV [5]: Neither S1 nor S2 affected the activity of RVV

CC(C)C(NC(=O)CNC(=O)CNC(=O)OCc1ccccc1)C(=O)C=[N+]=[N-] (stereo not drawn) [D4, Z-Gly-Gly-Val diazomethyl ketone] (Cbz-Gly-Gly-[ξV]-CHN2)
percent inhibition of CP (cancer procoagulant (CP) [1]; 100 μM inhibitor): about 48%
percent inhibition of papain (papain; 100 μM inhibitor): 2%
effect on the coagulation controls and the assay plasma [2]: essentially the same results
